Results reported in patent US20230085307A1, “PYRIDAZINONE COMPOUND AND HERBICIDE” (NISSAN CHEMICAL CORPORATION, priority 2019, published 2023).

How the values were obtained:
redroot pigweed [1] = test: Test Example 5: herbicidal effect by foliage application, plastic box (Table 20, symbol N); type: in vivo, redroot pigweed (Amaranthus retroflexus); conditions: foliage application, AAH 320 g/ha, three weeks after application
Summary of the method: (§1)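 Post-emergence foliar test in sterilized diluvial soil. Compound applied as water-diluted emulsion at a predetermined rate to 14-day-old plants; evaluation at three weeks.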

Italian ryegrass [2] = test: Test Example 5: herbicidal effect by foliage application, plastic box (Table 20, symbol K); type: in vivo, Italian ryegrass (Lolium multiflorum); conditions: foliage application, AAH 320 g/ha, three weeks after application
Summary of the method: as §1

green foxtail [3] = test: Test Example 4: herbicidal effect by soil treatment (Table 19, symbol G); type: in vivo, green foxtail (Setaria viridis); conditions: AAH 320 g/ha
Summary of the method: (§2)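 Scoring uses the grading scale of an earlier test, three weeks post-application. Treatment consists of spraying a diluted emulsion formulation across the surface of sterilized diluvial soil in which seeds are buried near 1.5 cm deep; boxes are kept in a greenhouse between 25° C. and 30° C.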

barnyard grass [4] = test: Test Example 3: herbicidal effect by foliage application, Wagner pot (Table 18, symbol H); type: in vivo, barnyard grass (Echinochloa crus-galli); conditions: 320 g/ha
Summary of the method: (§3)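 Plants were sown in alluvial soil held under 0.1–0.5 cm standing water and grown 14 days in a greenhouse at 25–30 °C. An emulsifiable formulation, water-diluted to the set dose, was then sprayed onto the foliage, and effects were scored three weeks later using previously defined criteria.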

southern crabgrass [5] = test: Test Example 4: herbicidal effect by soil treatment (Table 19, symbol F); type: in vivo, southern crabgrass (Digitaria ciliaris); conditions: AAH 320 g/ha
Summary of the method: as §2

Chinese sprangletop = test: Test Example 3: herbicidal effect by foliage application, Wagner pot (Table 18, symbol D); type: in vivo, chinese sprangletop (Leptochloa chinensis); conditions: 320 g/ha
Summary of the method: as §3

Italian ryegrass [6] = test: Test Example 4: herbicidal effect by soil treatment (Table 19, symbol K); type: in vivo, Italian ryegrass (Lolium multiflorum); conditions: AAH 320 g/ha
Summary of the method: as §2

wild oat [7] = test: Test Example 4: herbicidal effect by soil treatment (Table 19, symbol I); type: in vivo, wild oat (Avena fatua); conditions: AAH 320 g/ha
Summary of the method: as §2

barnyard grass [8] = test: Test Example 4: herbicidal effect by soil treatment (Table 19, symbol H); type: in vivo, barnyard grass (Echinochloa crus-galli); conditions: AAH 320 g/ha
Summary of the method: as §2

windgrass [9] = test: Test Example 5: herbicidal effect by foliage application, plastic box (Table 20, symbol L); type: in vivo, windgrass (Apera spica-venti); conditions: foliage application, AAH 320 g/ha, three weeks after application
Summary of the method: as §1

persian speedwell [10] = test: Test Example 5: herbicidal effect by foliage application, plastic box (Table 20, symbol R); type: in vivo, Persian speedwell (Veronica persica); conditions: foliage application, AAH 320 g/ha, three weeks after application
Summary of the method: as §1

redroot pigweed [11] = test: Test Example 4: herbicidal effect by soil treatment (Table 19, symbol N); type: in vivo, redroot pigweed (Amaranthus retroflexus); conditions: AAH 320 g/ha
Summary of the method: as §2

lambsquarters [12] = test: Test Example 5: herbicidal effect by foliage application, plastic box (Table 20, symbol O); type: in vivo, lambsquarters (Chenopodium album); conditions: foliage application, AAH 320 g/ha, three weeks after application
Summary of the method: as §1

persian speedwell [13] = test: Test Example 4: herbicidal effect by soil treatment (Table 19, symbol R); type: in vivo, Persian speedwell (Veronica persica); conditions: AAH 320 g/ha
Summary of the method: as §2

chickweed [14] = test: Test Example 4: herbicidal effect by soil treatment (Table 19, symbol P); type: in vivo, common chickweed (Stellaria media); conditions: AAH 320 g/ha
Summary of the method: as §2

blackgrass [15] = test: Test Example 5: herbicidal effect by foliage application, plastic box (Table 20, symbol J); type: in vivo, blackgrass (Alopecurus myosuroides); conditions: foliage application, AAH 320 g/ha, three weeks after application
Summary of the method: as §1

windgrass [16] = test: Test Example 4: herbicidal effect by soil treatment (Table 19, symbol L); type: in vivo, windgrass (Apera spica-venti); conditions: AAH 320 g/ha
Summary of the method: as §2

southern crabgrass [17] = test: Test Example 5: herbicidal effect by foliage application, plastic box (Table 20, symbol F); type: in vivo, southern crabgrass (Digitaria ciliaris); conditions: foliage application, AAH 320 g/ha, three weeks after application
Summary of the method: as §1

velvetleaf [18] = test: Test Example 5: herbicidal effect by foliage application, plastic box (Table 20, symbol M); type: in vivo, velvetleaf (Abutilon theophrasti); conditions: foliage application, AAH 320 g/ha, three weeks after application
Summary of the method: as §1

lambsquarters [19] = test: Test Example 4: herbicidal effect by soil treatment (Table 19, symbol O); type: in vivo, lambsquarters (Chenopodium album); conditions: AAH 320 g/ha
Summary of the method: as §2

wild oat [20] = test: Test Example 5: herbicidal effect by foliage application, plastic box (Table 20, symbol I); type: in vivo, wild oat (Avena fatua); conditions: foliage application, AAH 320 g/ha, three weeks after application
Summary of the method: as §1

rice flat sedge = test: Test Example 3: herbicidal effect by foliage application, Wagner pot (Table 18, symbol E); type: in vivo, rice flat sedge (Cyperus iria); conditions: 320 g/ha
Summary of the method: as §3

green foxtail [21] = test: Test Example 5: herbicidal effect by foliage application, plastic box (Table 20, symbol G); type: in vivo, green foxtail (Setaria viridis); conditions: foliage application, AAH 320 g/ha, three weeks after application
Summary of the method: as §1

blackgrass [22] = test: Test Example 4: herbicidal effect by soil treatment (Table 19, symbol J); type: in vivo, blackgrass (Alopecurus myosuroides); conditions: AAH 320 g/ha
Summary of the method: as §2

barnyard grass [23] = test: Test Example 5: herbicidal effect by foliage application, plastic box (Table 20, symbol H); type: in vivo, barnyard grass (Echinochloa crus-galli); conditions: foliage application, AAH 320 g/ha, three weeks after application
Summary of the method: as §1

chickweed [24] = test: Test Example 5: herbicidal effect by foliage application, plastic box (Table 20, symbol P); type: in vivo, common chickweed (Stellaria media); conditions: foliage application, AAH 320 g/ha, three weeks after application
Summary of the method: as §1

velvetleaf [25] = test: Test Example 4: herbicidal effect by soil treatment (Table 19, symbol M); type: in vivo, velvetleaf (Abutilon theophrasti); conditions: AAH 320 g/ha
Summary of the method: as §2

SMILES: CCCC(=O)Oc1c(C)nn(C)c(=O)c1-c1c(-c2cccc(C#N)c2)sc2ccccc12 [1-124]
- N: redroot pigweed, herbicidal effect (redroot pigweed [1]): 4 (Herbicidal rate of 70% or more and less than 90%)
- K: Italian ryegrass, herbicidal effect (Italian ryegrass [2]): 0 (Herbicidal rate of 5% or less (almost no effect))
- G: green foxtail, herbicidal effect rating (green foxtail [3]): 0 (Herbicidal rate of 5% or less (almost no effect))
- herbicidal effect on H (barnyard grass), rating 0-5 (barnyard grass [4]): 0 (Herbicidal rate of 5% or less (almost no effect))
- F: southern crabgrass, herbicidal effect rating (southern crabgrass [5]): 0 (Herbicidal rate of 5% or less (almost no effect))
- herbicidal effect on D (Chinese sprangletop), rating 0-5 (Chinese sprangletop): 2 (Herbicidal rate of 20% or more and less than 40%)
- K: Italian ryegrass, herbicidal effect rating (Italian ryegrass [6]): 0 (Herbicidal rate of 5% or less (almost no effect))
- I: wild oat, herbicidal effect rating (wild oat [7]): 0 (Herbicidal rate of 5% or less (almost no effect))
- H: barnyard grass, herbicidal effect rating (barnyard grass [8]): 0 (Herbicidal rate of 5% or less (almost no effect))
- L: windgrass, herbicidal effect (windgrass [9]): 0 (Herbicidal rate of 5% or less (almost no effect))
- R: persian speedwell, herbicidal effect (persian speedwell [10]): 1 (Herbicidal rate of 5% or more and less than 20%)
- N: redroot pigweed, herbicidal effect rating (redroot pigweed [11]): 0 (Herbicidal rate of 5% or less (almost no effect))
- O: lambsquarters, herbicidal effect (lambsquarters [12]): 3 (Herbicidal rate of 40% or more and less than 70%)
- R: persian speedwell, herbicidal effect rating (persian speedwell [13]): 0 (Herbicidal rate of 5% or less (almost no effect))
- P: chickweed, herbicidal effect rating (chickweed [14]): 3 (Herbicidal rate of 40% or more and less than 70%)
- J: blackgrass, herbicidal effect (blackgrass [15]): 0 (Herbicidal rate of 5% or less (almost no effect))
- L: windgrass, herbicidal effect rating (windgrass [16]): 0 (Herbicidal rate of 5% or less (almost no effect))
- F: southern crabgrass, herbicidal effect (southern crabgrass [17]): 0 (Herbicidal rate of 5% or less (almost no effect))
- M: velvetleaf, herbicidal effect (velvetleaf [18]): 3 (Herbicidal rate of 40% or more and less than 70%)
- O: lambsquarters, herbicidal effect rating (lambsquarters [19]): 0 (Herbicidal rate of 5% or less (almost no effect))
- I: wild oat, herbicidal effect (wild oat [20]): 0 (Herbicidal rate of 5% or less (almost no effect))
- herbicidal effect on E (rice flat sedge), rating 0-5 (rice flat sedge): 3 (Herbicidal rate of 40% or more and less than 70%)
- G: green foxtail, herbicidal effect (green foxtail [21]): 0 (Herbicidal rate of 5% or less (almost no effect))
- J: blackgrass, herbicidal effect rating (blackgrass [22]): 0 (Herbicidal rate of 5% or less (almost no effect))
- H: barnyard grass, herbicidal effect (barnyard grass [23]): 0 (Herbicidal rate of 5% or less (almost no effect))
- P: chickweed, herbicidal effect (chickweed [24]): 0 (Herbicidal rate of 5% or less (almost no effect))
- M: velvetleaf, herbicidal effect rating (velvetleaf [25]): 0 (Herbicidal rate of 5% or less (almost no effect))
